Measurements published in PMC11406516, “The Tuberculosis Drug Candidate SQ109 and Its Analogs Have Multistage Activity against Plasmodium falciparum” (ACS Infectious Diseases, 2024).
Values after ≈ are worked out from the molar mass of the structure shown. Read-outs that look alike come from different tables or passages of the source. Marks after values point to notes of the source that are not given here.

Columns and labels:
PfDd2 parasites = assay: Asexual blood stage activity, chloroquine-resistant Dd2; assay type: cell-based; conditions: Plasmodium falciparum, DD2, read-out: Pf ABS IC50 (Dd2)
Source text: This strain is highly resistant to chloroquine and other antimalarials and is associated with increased export of e.g., chloroquine from the digestive vacuole.[23] This phenotype was also replicated in PfDd2 parasites, also resistant to chloroquine (among other antimalarials), with 4 and 5 losing activity but 1 similarly active (Table 1). These aromatic compounds may therefore be subject to resistance mechanisms similar to those found with chloroquine.

[1] = test system: PfNF54 LGc (stage IV/V gametocytes); assay: PrestoBlue late-stage gametocyte viability assay; assay type: cell-based, Plasmodium falciparum; conditions: for IC50: Plasmodium falciparum, stage IV/V gametocytes, 48 h drug pressure, read-out: PfNF54 LGc IC50
Description: Gametocytogenesis was induced on highly synchronized (>95%) asexual ring-stage parasites from PfNF54 at 0.5% parasitemia and 6% hematocrit and thereafter maintained in glucose-deprived media as previously described.[29],[15] After 3 days, the hematocrit was decreased to 4%. Parasites were maintained in complete culture media supplemented with 50 mM N-acetyl-glucosamine 5–10 days post induction to inhibit proliferation of residual asexual blood stages. Gametocyte progression and morphology was also monitored microscopically using Giemsa-stained thin smears.
activity against the sexual stages of P. falciparum was evaluated using the PrestoBlue fluorescence assay as previously described.[4] Activity was measured on PfNF54 stage IV/V gametocytes (2% gametocytemia, 5% hematocrit) previously seeded with compounds (in non-lethal DMSO) for 48 h drug pressure, after which PrestoBlue reagent was added and incubated for 2 h. Fluorescence was detected in the supernatant at 612 nm. Dihydroartemisinin (DHA) was used as a positive drug control.

physchem = assay type: physicochemical; conditions: 37 °C, pH 6.5, aqueous buffer, thermodynamic from solid
Description: The stock solutions (10^–2 M) of the assayed compounds were diluted to decreased molarity, from 300 to 0.1 μM, in 384 well transparent plate (Greiner 781801) with 1% DMSO:99% PBS buffer. Then, they were incubated at 37 °C and the light scattering was measured after 2 h in a NEPHELOstar Plus (BMG LABTECH). The results were adjusted to a segmented regression to obtain the maximum concentration in which compounds are soluble.
The solubility of each product was evaluated using an HPLC Agilent 1100 with a DAD detector. The samples were injected in an Agilent Poroshell 120 EC-C18, 2.7 μm, 50 mm × 4.6 mm column at 40 °C and 0.6 mL/min flow. The mobile phase was a mixture of A = water with 0.05% formic acid and B = acetonitrile with 0.05% formic acid. The procedure followed was from 95% A–5% B to 100% B in 3 min, 100% B in 3 min, from 100% B to 95% A–5% B in 1 min, 95% A–5% B in 3 min; the injection volume was set at 75 μL. […] The samples remained at these conditions between 12–24 h. Then, the samples were filtered through a 0.45 μm PVDF filter and either directly analyzed or diluted before analyzing. The obtained area under the curve was compared with the one from the standard solution.

in vitro = in vitro ADME; conditions: microsomes
Description: The microsomal stability assay used a single-point assay design (Di et al., 2004). Briefly, the compounds were incubated at 1 μM in human, rat, and mouse liver microsomes (0.4 mg/mL) for 30 min at 37 °C. Reactions were quenched by adding ice-cold acetonitrile containing internal standard (carbamazepine, 0.0236 μg/mL). The samples were then centrifuged, and the samples were analyzed by liquid chromatography with tandem mass spectrometry (LC-MS/MS) (Agilent Rapid Resolution HPLC, AB SCIEX 4500 MS) for the disappearance of the parent compound. Half-life, clearance and hepatic […] ratios were determined using standard equations.

male gametes (PfNF54) = assay: Male gamete exflagellation inhibition assay (EIA); assay type: cell-based; conditions: Plasmodium falciparum; 2 μM, 48 h; read-out: male gamete inhibition %
Description: The EIA was performed using video microscopy by capturing the movement of exflagellation centers over time as previously described.[4],[30] Mature PfNF54 stage V gametocytes (>95%;) were treated with 2 μM of drug for 48 h before the activation of exflagellation, without removing drug pressure. Movement was semi-automatically quantified from 15 videos of 8–10 s each between 15 and 22.5 min after incubation. Each video was analyzed using ICY-bio image analysis software.

female gametes = assay: Female gamete inhibition assay; assay type: cell-based, Plasmodium falciparum; design: concentration or dose not given beside the values
Description: Similarly, female gametes were activated as described previously.[31] Monoclonal anti-Pfs antibody conjugated to FITC was used to detect female gametes. Image acquisition was performed using a Zeiss Axio Lab.A1 epifluorescence microscope with a 100/1.4 numerical aperture (NA) oil immersion. Thirty images were captured per sample and analyzed manually.

oocyst formation = assay: Standard membrane feeding assay (SMFA), oocyst formation in Anopheles coluzzii; assay type: in vivo; conditions: Plasmodium falciparum, 48 h drug treatment at 2 μM, single biological repeat
Description: Transmission-blocking activity was confirmed in the standard membrane feeding assay (SMFA), by determining transmission-reducing activity (TRA; reduction in oocyst counts) and transmission-blocking activity (TBA, reduction in oocyst prevalence), 8–10 days after feeding female mosquitoes on gametocyte-infected blood, treated with selected compounds (at 2 μM).
SMFA was performed using glass feeders as is outlined.[4],[16] Once again, mature stage V gametocytes (>95%) were treated with 2 μM of each compound for 48 h prior to feeding. Anopheles coluzzii females were allowed to feed on gametocyte cultures (1.5–2.5% gametocytemia, 50% hematocrit in A+ male serum with fresh erythrocytes) in the dark for 40 min. All unfed or partially fed mosquitoes were removed, and remaining females housed for 8–10 days. Mosquitoes were dissected to remove midguts, and oocysts counted under bright field illumination at ×20–×40 magnification. The percentage of block in transmission (transmission-blocking activity; TBA) and the percentage of reduction in the number of oocysts (transmission-reducing activity; TRA) were calculated after normalizing to the control untreated sample.

PfNF54 ABS [2] = test system: PfNF54 ABS; design: method as in Stampolaki et al.[5]; conditions: drug-sensitive NF54; ref Stampolaki et al.[5]; read-out: Pf ABS IC50 NF54; cited from earlier work
HepG2 cells [3] = test system: HepG2 cells; design: method as in Stampolaki et al.[5]; conditions: compound at 20 μM; ref Stampolaki et al.[5]; cited from earlier work
PfK1 = assay: SYBR Green I proliferation assay, asexual blood stages, multidrug-resistant K1; conditions: for fold higher IC50 against PfK1: PfK1 vs NF54; for IC50: Plasmodium falciparum, K1, read-out: Pf ABS IC50 K1
Description: (§1) P. falciparum asexual parasites were cultured from drug-sensitive NF54 (PfNF54) and multidrug resistant strains PfK1. Parasites were maintained in human erythrocytes (O+, suspended at 5% hematocrit) in RPMI-1640 culture medium (23.81 mM sodium bicarbonate, 0.024 mg/mL gentamycin, 25 mM HEPES pH 7.5, 0.2% D-glucose, 0.2 mM hypoxanthine and Albumax II) under hypoxic conditions (5% CO2, 5% O2 and 90% N2) with moderate shaking (60 rpm) at 37 °C. Cultures were synchronized to >95% in the ring stage with 5% (w/v) D-sorbitol treatment.[28]
(§2) Activity against the asexual stage of P. falciparum was evaluated using the SYBR Green I-based fluorescence assay as previously described.[4],[16] Cellular proliferation was measured on synchronized in vitro PfNF54 ring-stage parasites (1% parasitemia, 2% hematocrit), following drug pressure for 96 h. Chloroquine was used as the positive drug control for complete inhibition of parasite proliferation.

[4] = test system: African field isolate SB05; assay: Ex vivo activity on clinical isolate SB05; assay type: cell-based, Plasmodium falciparum; conditions: Plasmodium falciparum, read-out: IC50 SB05
Source text: Since SB03/05 are both multiclonal,[27] this warrants further investigation into the activity of this series toward clinical gametocytes.
(A) Dose–response analysis of SQ109 on clinical isolates SB03 and SB05 in comparison to lab-adapted NF54 P. falciparum parasites. Data are from at least 2 independent biological repeats, mean ± SE indicated, * P < 0.05 is indicated. (B) IC50 for SQ109 analogs 13 and 19 against a contemporary African field isolate SB05. […] TEXT PRINTED IN THE PICTURE: (A) SQ109/1: IC50 (μM), NF54: 1.58 ± 0.20; IC50 (μM), SB03: 0.63 ± 0.01; IC50 (μM), SB05: 0.90 DOUBTS OF THE COPYIST ABOUT THIS PICTURE: Panel A: the three IC50 values are matched to NF54, SB03 and SB05 only by line style (black dashed, grey solid, grey dashed), not by a printed label beside the numbers.

HepG2 cells [5] = assay: HepG2 cytotoxicity, LDH release assay; conditions: Homo sapiens, HepG2, 24 h, read-out: HepG2 EC50
Description: (§3) Furthermore, compounds were evaluated against late (stage IV/V) gametocytes from PfNF54 (PfNF54 LGc), with viability detected with PrestoBlue,[15] and orthogonally evaluated for toxicity against a human hepatocellular carcinoma line, HepG2.[16]
(§4) Human hepatocellular liver carcinoma cells (HepG2) were cultivated in vitro in Dulbecco’s Modified Eagle’s Medium (DMEM) supplemented with 10% (v/v) heat inactivated fetal bovine serum and 1% (v/v) penicillin/streptomycin.[14] Cells were detached with trypsin treatment at 80% confluency and were seeded in 96-well plates to adhere for 24 h under 5% CO2, humid (95%) conditions. Cells were subsequently exposed to drug pressure for 24 h and cytotoxicity was then determined using the lactate dehydrogenase (LDH) release assay through the colorimetric detection at 450 nm, as previously outlined.[4],[16]

PfNF54 ABS [6] = assay: SYBR Green I proliferation assay, asexual blood stages, drug-sensitive NF54; conditions: for IC50: Plasmodium falciparum, NF54, 96 h, read-out: Pf ABS IC50 NF54
Description: as §1, §2

HepG2 cells [7] = test system: HepG2 cells
Description: as §3, §4

[8] = HepG2 cytotoxicity, LDH release assay; conditions: human, HepG2 cells
Description: as §3, §4

[9] = read-out: oocyst formation (% inhibition) TBA
[10] = read-out: oocyst formation (% inhibition) TRA

Compound	IC50 [1]	solubility (physchem)	inhibition at 2 µM (male gametes (PfNF54))	female gamete inhibition % (female gametes)	inhibition at 2 µM (oocyst formation; [9])	inhibition at 2 µM (oocyst formation; [10])	IC50 (PfNF54 ABS [2])	HepG2 % viability (HepG2 cells [3])	IC50 (PfK1)	EC50 (HepG2 cells [5])	IC50 (PfNF54 ABS [6])	cytotoxicity to HepG2 cells (in words) (HepG2 cells [7])	also measured
CC(C)=CCC/C(C)=C/CNCCNC1(c2ccccc2)C2CC3CC(C2)CC1C3 (stereo not shown) [Compound 5]	210 ± 20 nM	30 µM (≈ 12.2 µg/mL)	48 ± 24.8%	61.03 ± 14.35%	63%	38%	420 ± 90 nM	100%^c	5990 ± 630 nM				IC50 (PfDd2 parasites): 5660 nM; microsomal CLint at 1 µM (in vitro; human): 400 µL/min/mg; microsomal CLint at 1 µM (in vitro; mouse): 343 µL/min/mg; microsomal CLint at 1 µM (in vitro; rat): 514 µL/min/mg; fold higher IC50 against PfK1 (PfK1): 14 ×
CC(C)=CCC/C(C)=C/CNCCCNC1C2CC3CC(C2)CC1C3 (stereo not shown) [Compound 13]	120 ± 30 nM		90.9 ± 9.09%	87.02 ± 3.68%	64%	70%			1050 ± 90 nM	11800 ± 830 nM	980 ± 80 nM		fold improvement in gametocyte activity compared to 1 ([1]; PfNF54 LGc): 1.2 fold; IC50 [4]: 490 ± 90 nM; fold improvement in ABS activity compared to 1 (PfNF54 ABS [6]; PfNF54 ABS): 1.6 fold
c1ccc(Oc2cccc(CNCCNC3C4CC5CC(C4)CC3C5)c2)cc1 (stereo not shown) [Compound 23]	1510 ± 420 nM								4140 ± 1370 nM	20000 ± 5690 nM	960 ± 10 nM	moderately cytotoxic	
CC(C)CCCC(C)CCNCCNC1C2CC3CC(C2)CC1C3 (stereo not shown) [Compound 19]	300 ± 30 nM		95.5 ± 4.55%	86.30 ± 2.58%	36%	47%			110 ± 10 nM	3500 ± 90 nM	200 nM	moderately cytotoxic	IC50 [4]: 950 ± 310 nM
CC(C)=CCC/C(C)=C/CNCCNC1(C)C2CC3CC(C2)CC1C3 (stereo not shown) [Compound 7]	200 ± 20 nM	773 µM (≈ 266 µg/mL)	27.1 ± 14%	34.05 ± 9.23%			660 ± 160 nM	100%^c	860 ± 270 nM				microsomal CLint at 1 µM (in vitro; human): 254 µL/min/mg; microsomal CLint at 1 µM (in vitro; mouse): 348 µL/min/mg; microsomal CLint at 1 µM (in vitro; rat): 373 µL/min/mg
CC(C)=CCC/C(C)=C/CNCCNC1(Cc2ccccc2)C2CC3CC(C2)CC1C3 (stereo not shown) [Compound 4]	160 ± 20 nM	13.9 µM (≈ 5.85 µg/mL)	43.9 ± 10.6%	74.48 ± 2.26%	26%		320 ± 30 nM	100%^c	> 5000 nM				IC50 (PfDd2 parasites): 8110 nM; fold higher IC50 against PfK1 (PfK1): 16 ×
c1ccc(CCNCCNC2C3CC4CC(C3)CC2C4)cc1 (stereo not shown) [Compound 22]	740 ± 150 nM		92.1 ± 1.21%	85.40 ± 7.62%	80%	89%			1700 ± 210 nM		730 ± 40 nM	moderately cytotoxic	fold loss in gametocyte activity ([1]; LGc, compared to 1): 7 fold; viability at 24 h, 20 µM [8]: 100%
CC(C)CCCC(C)CCCC(C)CCNCCNC1C2CC3CC(C2)CC1C3 (stereo not shown) [Compound 20]	540 ± 40 nM		95 ± 5%	77.52 ± 10.85%	54%	75%			390 ± 10 nM	5110 ± 850 nM	390 ± 150 nM	moderately cytotoxic	
